Assay results as given in US20240174618A1, “SUBSTITUTED (2-HETEROARYLOXYPHENYL)SULFONATES, SALTS THEREOF AND THEIR USE AS HERBICIDAL AGENTS” (Bayer Aktiengesellschaft, priority 2021, published 2024).

Key:
Type in all cases: in vivo
[1] = test system: Amaranthus retroflexus (AMARE); test: C. Herbicidal pre-emergence efficacy, AMARE; settings: scored after about 3 weeks
Source text: (§1) Seeds of monocotyledonous and dicotyledonous weed plants and crop plants were placed in plastic or organic planting pots and covered with soil. The compounds of the invention, formulated in the form of wettable powders (WP) or as emulsion concentrates (EC), were then applied to the surface of the covering soil as aqueous suspension or emulsion with addition of 0.5% additive at a water application rate equivalent to 600 l/ha (converted). After the treatment, the pots were placed in a greenhouse and kept under good growth conditions for the test plants. After about 3 weeks, the efficacy of the preparations was scored visually in comparison with untreated controls as percentages. For example, • 100% efficacy=plants have died, • 0% efficacy=like untreated control plants.
(§2) Tables C1a to C14b below show the effects of selected compounds of the general formula (I) according to table 1 on various harmful plants at an application rate corresponding to 320 g/ha or less, which were obtained by the experimental procedure mentioned above.

Viola tricolor (VIOTR) [2] = test: C. Herbicidal pre-emergence efficacy, VIOTR; settings: application rate 320 g/ha
Source text: as §1, §2

Kochia scoparia (KCHSC) [3] = test: C. Herbicidal pre-emergence efficacy, KCHSC
Source text: as §1, §2

Zea mays (ZEAMX) = test: D. Pre-emergence effect on useful plants, ZEAMX; settings: useful plant
Source text: as §1
(§3) Tables D1a to D5b below show the effects of selected compounds of the general formula (I) according to table 1 on various useful plants at an application rate corresponding to 320 g/ha or less, which were obtained by the experimental procedure mentioned above.

[4] = test system: Triticum aestivum (TRZAS); test: D. Pre-emergence effect on useful plants, TRZAS; settings: useful plant
Source text: as §1, §3

Brassica napus (BRSNW) = test: D. Pre-emergence effect on useful plants, BRSNW; settings: useful plant
Source text: as §1, §3

[5] = test system: Amaranthus retroflexus (AMARE); test: E. Herbicidal post-emergence efficacy, AMARE
Protocol: (§4) Seeds of monocotyledonous and dicotyledonous weeds and crop plants were placed in sandy loam in plastic or organic planting pots, covered with soil and cultivated in a greenhouse under controlled growth conditions. 2 to 3 weeks after sowing, the test plants were treated at the one-leaf stage. The compounds of the invention, formulated in the form of wettable powders (WP) or as emulsion concentrates (EC), were then sprayed onto the green parts of the plants as aqueous suspension or emulsion with addition of 0.5% additive at a water application rate of 600 l/ha (converted). After the test plants had been kept in the greenhouse under optimum growth conditions for about 3 weeks, the activity of the preparations was rated visually in comparison to untreated controls.
(§5) For example, • 100% efficacy=plants have died, • 0% action=like untreated control plants.
(§6) Tables E1a to E12b below show the effects of selected compounds of the general formula (I) according to table 1 on various harmful plants at an application rate corresponding to 320 g/ha or less, which were obtained by the experimental procedure mentioned above.

[6] = test system: Pharbitis purpurea (PHBPU); test: E. Herbicidal post-emergence efficacy, PHBPU
Protocol: as §4, §5, §6

Veronica persica (VERPE) = test: E. Herbicidal post-emergence efficacy, VERPE
Protocol: as §4, §5, §6

Viola tricolor (VIOTR) [7] = test: E. Herbicidal post-emergence efficacy, VIOTR
Protocol: as §4, §5, §6

Kochia scoparia (KCHSC) [8] = test: E. Herbicidal post-emergence efficacy, KCHSC
Protocol: as §4, §5, §6

[9] = test system: Triticum aestivum (TRZAS); test: F. Post-emergence effect on useful plants, TRZAS; settings: useful plant, application rate 80 g/ha
Protocol: as §4, §5
Tables F1a to F4 below show the effects of selected compounds of the general formula (I) according to table 1 on various useful plants at an application rate corresponding to 320 g/ha or less, which were obtained by the experimental procedure mentioned above.

[10] = test system: Digitaria sanguinalis (DIGSA); test: C. Herbicidal pre-emergence efficacy, DIGSA; settings: 320 g/ha, scored after about 3 weeks
Source text: as §1, §2

[11] = test system: Matricaria inodora (MATIN); test: C. Herbicidal pre-emergence efficacy, MATIN; settings: 320 g/ha, scored after about 3 weeks
Source text: as §1, §2

Setaria viridis (SETVI) = test: C. Herbicidal pre-emergence efficacy, SETVI; settings: 320 g/ha, scored after about 3 weeks
Source text: as §1, §2

Glycine max (GLXMA) = test: D. Pre-emergence effect on useful plants, GLXMA; settings: useful plant
Source text: as §1, §3

[12] = test system: Abutilon theophrasti (ABUTH); test: E. Herbicidal post-emergence efficacy, ABUTH; settings: application rate 320 g/ha
Protocol: as §4, §5, §6

Pre-emergence efficacy against ZEAMX in % (Zea mays (ZEAMX); application rate 80 g/ha) [%]	Pre-emergence efficacy against TRZAS in % ([4]; application rate 80 g/ha) [%]	Pre-emergence efficacy against TRZAS in % ([4]; application rate 320 g/ha) [%]	Pre-emergence efficacy against BRSNW in % (Brassica napus (BRSNW); application rate 80 g/ha) [%]	Post-emergence efficacy against TRZAS in % [9] [%]	SMILES	Pre-emergence efficacy against AMARE ([1]; 80 g/ha) [%]	Pre-emergence efficacy against AMARE ([1]; 320 g/ha) [%]	Pre-emergence efficacy against VIOTR in % (Viola tricolor (VIOTR) [2]) [%]	Pre-emergence efficacy against KCHSC in % (Kochia scoparia (KCHSC) [3]; application rate 320 g/ha) [%]	Post-emergence efficacy against AMARE in % ([5]; application rate 80 g/ha) [%]	Post-emergence efficacy against AMARE in % ([5]; application rate 320 g/ha) [%]	Post-emergence efficacy against PHBPU in % ([6]; application rate 320 g/ha) [%]	Post-emergence efficacy against VERPE in % (Veronica persica (VERPE); application rate 80 g/ha) [%]	Post-emergence efficacy against VERPE in % (Veronica persica (VERPE); application rate 320 g/ha) [%]	Post-emergence efficacy against KCHSC in % (Kochia scoparia (KCHSC) [8]; application rate 80 g/ha) [%]	Post-emergence efficacy against KCHSC in % (Kochia scoparia (KCHSC) [8]; application rate 320 g/ha) [%]	further results
0	0	0	20	0	N#Cc1cccc(Oc2ncc(Cl)cn2)c1OS(=O)(=O)CC1CC1(Cl)Cl (centres unmarked) [Example I-78]	100	100	100	100	90	100	100	100	100	100	100	Pre-emergence efficacy against KCHSC in % (Kochia scoparia (KCHSC) [3]; application rate 80 g/ha): 100%; Pre-emergence efficacy against ZEAMX in % (Zea mays (ZEAMX); application rate 320 g/ha): 20%; Post-emergence efficacy against PHBPU in % ([6]; application rate 80 g/ha): 90%; Post-emergence efficacy against VIOTR in % (Viola tricolor (VIOTR) [7]; application rate 80 g/ha): 90%; Post-emergence efficacy against VIOTR in % (Viola tricolor (VIOTR) [7]; application rate 320 g/ha): 100%
0	0	10	0	0	O=S(=O)(CC=C(Cl)Cl)Oc1c(F)cccc1Oc1ncc(Cl)cn1 [Example I-85]	100	100	80	100	90	100	90	100	100	80	100	Pre-emergence efficacy against DIGSA [10]: 100%; Pre-emergence efficacy against MATIN [11]: 80%; Pre-emergence efficacy against SETVI (Setaria viridis (SETVI)): 90%; Pre-emergence efficacy against GLXMA in % (Glycine max (GLXMA); application rate 80 g/ha): 0%; Pre-emergence efficacy against GLXMA in % (Glycine max (GLXMA); application rate 320 g/ha): 0%; Pre-emergence efficacy against BRSNW in % (Brassica napus (BRSNW); application rate 320 g/ha): 0%; Post-emergence efficacy against ABUTH in % [12]: 80%
